# Experimental data taken from patent publication US12084472B2 (Ardelyx, Inc., priority 2015, dated 2024).
# Biological target: T1, human TGR5 (Homo sapiens, UniProt Q8TDU6)
# T1 construct: expressed in transfected cells; host or cells: HEK293
# T1 sequence (Q8TDU6 1-330): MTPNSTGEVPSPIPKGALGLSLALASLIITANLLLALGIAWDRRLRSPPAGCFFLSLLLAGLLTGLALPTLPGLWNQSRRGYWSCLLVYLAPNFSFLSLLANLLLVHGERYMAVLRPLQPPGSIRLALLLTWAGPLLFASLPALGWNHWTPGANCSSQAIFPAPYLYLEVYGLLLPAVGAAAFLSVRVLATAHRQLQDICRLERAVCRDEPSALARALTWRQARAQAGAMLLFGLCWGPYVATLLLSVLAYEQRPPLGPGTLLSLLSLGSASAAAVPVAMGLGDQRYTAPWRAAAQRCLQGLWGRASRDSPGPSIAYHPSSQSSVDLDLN
# Assay: Cell-based TGR5 assay (cAMP generation, HTRF)
# Details: HEK293 cells stably transfected with human TGR5; cAMP by HTRF; 30 minutes at 37° C.; read-out: pEC50 Human TGR5 (converted)
# Method in brief: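 First, compounds in 3-fold serial dilution were placed in HBSS with 10 mM HEPES pH 7.4 and 0.5 mM IBMX. Next, human TGR5-expressing HEK293 cells were added and incubated 30 min at 37° C. Finally, cAMP was detected by HTRF and pEC50 derived by logistic fitting.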
row,SMILES,EC50 [nM]
1,"Cc1ccc(SCCCN(CCOCCO)C(=O)[C@@H](O)[C@@H](O)[C@H](O)[C@@H](O)CO)cc1COC1(c2cnccc2-c2ccccc2OC2CC2)CC1 [Compound I-538, (2S,3S,4R,5S)-N-(3-{[3-({1-[4-(2-cyclopropoxyphenyl)pyridin-3-yl]cyclopropoxy}methyl)-4-methylphenyl]sulfanyl}propyl)-2,3,4,5,6-pentahydroxy-N-[2-(2-hydroxyethoxy)ethyl]hexanamide]",1260 to 10000
2,"O=C([C@@H](O)[C@@H](O)[C@H](O)[C@@H](O)CO)N(CCCSc1ccc(Cl)c(COC2(c3cnccc3-c3ccccc3OC3CC3)CC2)c1)CCOCCO [Compound I-518, (2S,3S,4R,5S)-N-(3-{[4-chloro-3-({1-[4-(2-cyclopropoxyphenyl)pyridin-3-yl]cyclopropoxy}methyl)phenyl]sulfanyl}propyl)-2,3,4,5,6-pentahydroxy-N-[2-(2-hydroxyethoxy)ethyl]hexanamide]",< 100
3,"O=C1CCCN1CCCN(CCCSc1ccc(Cl)c(CNC2(c3cnccc3-c3ccccc3OC3CC3)CC2)c1)C(=O)[C@@H](O)[C@@H](O)[C@H](O)[C@@H](O)CO [Compound I-529, (2S,3S,4R,5S)-N-[3-({4-chloro-3-[({1-[4-(2-cyclopropoxyphenyl)pyridin-3-yl]cyclopropyl}amino)methyl]phenyl}sulfanyl)propyl]-2,3,4,5,6-pentahydroxy-N-[3-(2-oxopyrrolidin-1-yl)propyl]hexanamide]",126 to 1000
4,"COCCN(CCCCCNC(=O)N[C@@H](CO)[C@@H](O)[C@H](O)[C@H](O)CO)S(=O)(=O)c1ccc(Cl)c(COC2(c3cnccc3-c3ccccc3OC3CC3)CC2)c1 [Compound I-413, 1-{5-[N-(2-methoxyethyl)4-chloro-3-({1-[4-(2-cyclopropoxyphenyl)pyridin-3-yl]cyclopropoxy}methyl)benzenesulfonamido]pentyl}-3-[(2S,3R,4S,5R)-1,3,4,5,6-pentahydroxyhexan-2-yl]urea]",< 100
5,"O=C(O)CNC(=O)N(CCCCc1cc(Cl)c(COC2(c3cnccc3-c3ccccc3OC3CC3)CC2)cc1Cl)C[C@H](O)[C@@H](O)[C@H](O)[C@H](O)CO (stereo in doubt) [Compound I-197, 2-[({4-[2,5-dichloro-4-({1-[4-(2-cyclopropoxyphenyl)pyridin-3-yl]cyclopropoxy}methyl)phenyl]butyl}[(2S,3R,4R,5R)-2,3,4,5,6-pentahydroxyhexyl]carbamoyl)amino]acetic acid]",126 to 1000
6,"O=C(NCCN1CCN(S(=O)(=O)c2ccc(Cl)c(COC3(c4cnccc4-c4ccccc4OC4CC4)CC3)c2)CC1)NC[C@H](O)[C@@H](O)[C@H](O)[C@H](O)CO [Compound I-425, 1-(2-{4-[4-chloro-3-({1-[4-(2-cyclopropoxyphenyl)pyridin-3-yl]cyclopropoxy}methyl)benzenesulfonyl]piperazin-1-yl}ethyl)-3-[(2S,3R,4R,5R)-2,3,4,5,6-pentahydroxyhexyl]urea]",126 to 1000
7,"Clc1ccc(CNC2(c3cnccc3-c3ccccc3OC3CC3)CC2)c(Cl)c1 [Compound I-28, 1-[4-(2-cyclopropoxyphenyl)pyridin-3-yl]-N-[(2,4-dichlorophenyl)methyl]cyclopropan-1-amine]",126 to 1000
8,"CC(C)N(CCCCNC(=O)N[C@@H](CO)[C@@H](O)[C@H](O)[C@H](O)CO)S(=O)(=O)c1ccc(Cl)c(CNC2(c3cnccc3-c3ccccc3OC3CC3)CC2)c1 [Compound I-744, 4-chloro-3-(((1-(4-(2-cyclopropoxyphenyl)pyridin-3-yl)cyclopropyl)amino)methyl)-N-isopropyl-N-(4-(3-((2S,3R,4S,5R)-1,3,4,5,6-pentahydroxyhexan-2-yl)ureido)butyl)benzenesulfonamide]",< 100
9,"CN(C[C@H](O)[C@@H](O)[C@H](O)[C@H](O)CO)C(=O)CCCCc1cc(Cl)c(COC2(c3cnccc3-c3ccccc3OC3COC3)CC2)cc1Cl [Compound I-192, 5-{2,5-dichloro-4-[(1-{4-[2-(oxetan-3-yloxy)phenyl]pyridin-3-yl}cyclopropoxy)methyl]phenyl}-N-methyl-N-[(2S,3R,4R,5R)-2,3,4,5,6-pentahydroxyhexyl]pentanamide]",< 100
10,"Cc1cc(COC2(c3cnccc3-c3ccccc3OC3CC3)CC2)c(Cl)cc1CCCCN(CCO)C(=O)NC[C@H](O)[C@@H](O)[C@H](O)[C@H](O)CO [Compound I-97, 1-(4-(5-chloro-4-((1-(4-(2-cyclopropoxyphenyl)pyridin-3-yl)cyclopropoxy)methyl)-2-methylphenyl)butyl)-1-(2-hydroxyethyl)-3-((2S,3R,4R,5R)-2,3,4,5,6-pentahydroxyhexyl)urea]",126 to 1000

# Second part, the molecule after the results:
row,EC50 [nM],SMILES
1,< 100,"Cc1ccc(C(C)CCCC(=O)N(CCO)C[C@H](O)[C@@H](O)[C@H](O)[C@H](O)CO)cc1COC1(c2cnccc2-c2ccccc2OC2CC2)CC1 (stereo partly drawn) [Compound I-376, 5-[3-({1-[4-(2-cyclopropoxyphenyl)pyridin-3-yl]cyclopropoxy}methyl)-4-methylphenyl]-N-(2-hydroxyethyl)-N-[(2S,3R,4R,5R)-2,3,4,5,6-pentahydroxyhexyl]hexanamide]"
2,< 100,"CS(=O)(=O)NCCN(CCCCSc1ccc(Cl)c(COC2(c3cnccc3-c3ccccc3OC3CC3)CC2)c1)C(=O)[C@@H](O)[C@@H](O)[C@H](O)[C@@H](O)CO [Compound I-575, (2S,3S,4R,5S)-N-(4-{[4-chloro-3-({1-[4-(2-cyclopropoxyphenyl)pyridin-3-yl]cyclopropoxy}methyl)phenyl]sulfanyl}butyl)-2,3,4,5,6-pentahydroxy-N-(2-methanesulfonamidoethyl) hexanamide]"
3,126 to 1000,"O=C(NC[C@H](O)[C@@H](O)[C@H](O)[C@H](O)CO)NC1CN(S(=O)(=O)c2ccc(Cl)c(COC3(c4cnccc4-c4ccccc4OC4CC4)CC3)c2)C1 [Compound I-427, 1-{1-[4-chloro-3-({1-[4-(2-cyclopropoxyphenyl)pyridin-3-yl]cyclopropoxy}methyl)benzenesulfonyl]azetidin-3-yl}-3-[(2S,3R,4R,5R)-2,3,4,5,6-pentahydroxyhexyl]urea]"
4,< 100,"O=C(COC1CCN(S(=O)(=O)c2ccc(Cl)c(COC3(c4cnccc4-c4ccccc4OC4CC4)CC3)c2)CC1)NC[C@H](O)[C@@H](O)[C@H](O)[C@H](O)CO [Compound I-444, 2-({1-[4-chloro-3-({1-[4-(2-cyclopropoxyphenyl)pyridin-3-yl]cyclopropoxy}methyl)benzenesulfonyl]piperidin-4-yl}oxy)-N-[(2S,3R,4R,5R)-2,3,4,5,6-pentahydroxyhexyl]acetamide]"
5,< 100,"COCCN(CCCCCNC(=O)NC[C@H](O)[C@@H](O)[C@H](O)[C@H](O)CO)S(=O)(=O)c1ccc(Cl)c(COC2(c3cnccc3-c3ccccc3OC3CC3)CC2)c1 [Compound I-412, 1-{5-[N-(2-methoxyethyl)4-chloro-3-({1-[4-(2-cyclopropoxyphenyl)pyridin-3-yl]cyclopropoxy}methyl)benzenesulfonamido]pentyl}-3-[(2S,3R,4R,5R)-2,3,4,5,6-pentahydroxyhexyl]urea]"
6,< 100,"CN(C)C(=O)CCN(C[C@H](O)[C@@H](O)[C@H](O)[C@H](O)CO)C(=O)CCCCc1cc(Cl)c(COC2(c3cnccc3-c3ccccc3OC3CC3)CC2)cc1Cl [Compound I-222, 5-[2,5-dichloro-4-({1-[4-(2-cyclopropoxyphenyl)pyridin-3-yl]cyclopropoxy}methyl)phenyl]-N-[2-(dimethylcarbamoyl)ethyl]-N-[(2S,3R,4R,5R)-2,3,4,5,6-pentahydroxyhexyl]pentanamide]"
7,< 100,"N[C@@H](CCCCNS(=O)(=O)c1ccc(COC2(c3cnccc3-c3ccccc3OC3CC3)CC2)c(Cl)c1)C(=O)O [Compound I-484, (S)-2-amino-6-(3-chloro-4-((1-(4-(2-cyclopropoxyphenyl)pyridine-3-yl)cyclopropoxy)methyl)phenylsulfonamido)hexanoic acid]"
8,< 100,"O=C(NCCCCc1cc(Cl)c(COC2(c3cnccc3-c3ccccc3OC3CC3)CC2)cc1Cl)NC[C@H](O)[C@@H](O)[C@H](O)[C@H](O)CO [Compound I-141, 1-{4-[2,5-dichloro-4-({1-[4-(2-cyclopropoxyphenyl)pyridin-3-yl]cyclopropoxy}methyl)phenyl]butyl}-3-[(2S,3R,4R,5R)-2,3,4,5,6-pentahydroxyhexyl]urea]"
9,126 to 1000,"COCCCN(C[C@H](O)[C@@H](O)[C@H](O)[C@H](O)CO)C(=O)CCCSc1ccc(Cl)c(COC2(c3cnccc3-c3ccccc3OC3CC3)CC2)c1 [Compound I-673, 4-{[4-chloro-3-({1-[4-(2-cyclopropoxyphenyl)pyridin-3-yl]cyclopropoxy}methyl)phenyl]sulfanyl}-N-(3-methoxypropyl)-N-[(2S,3R,4R,5R)-2,3,4,5,6-pentahydroxyhexyl]butanamide]"
10,1260 to 10000,"CN(Cc1cc(Cl)ccc1Cl)C1(c2cnccc2-c2ccccc2OC2CC2)CC1 [Compound I-58, 1-[4-(2-cyclopropoxyphenyl)pyridin-3-yl]-N-[(2,5-dichlorophenyl)methyl]-N-1-amine]"
11,126 to 1000,"O=C([C@@H](O)[C@@H](O)[C@H](O)[C@@H](O)CO)N(CCCCSc1ccc(Cl)c(COC2(c3cnccc3-c3ccccc3OC3CC3)CC2)c1)C1CCS(=O)(=O)CC1 [Compound I-569, (2S,3S,4R,5S)-N-(4-{[4-chloro-3-({1-[4-(2-cyclopropoxyphenyl)pyridin-3-yl]cyclopropoxy}methyl)phenyl]sulfanyl}butyl)-N-(1,1-dioxo-1λ^6-thian-4-yl)-2,3,4,5,6-pentahydroxyhexanamide]"
